In the supplement of paper PMC3493320:

test system: NCI-H295R; test: IC50 (antiproliferative, ATP content); conditions: 48 h
Method in brief: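 Following overnight culture of adrenocortical carcinoma cells (1500 per well) in 1536-well plates with serum-free ITS-supplemented DMEM, library compounds were pin-transferred at 8 final concentrations from 0.6 nM to 46 µM. Incubation lasted 48 h at 37 °C, 5% CO2, and the CellTiter-Glo signal was read after 20 min at room temperature. Data were fitted with a four-parameter logistic model. Each IC50 came from that fit after normalisation to vehicle and positive-control wells, and compounds without a concentration response were reported as above the top dose.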

SMILES	IC50 [µM]
ClC=C(Cl)Cl	> 46
COc1c(O[C@@H]2O[C@H](CO)[C@@H](O)[C@H](O)[C@H]2O)cc2c(c1OC)-c1ccc(SC)c(=O)cc1[C@@H](NC(C)=O)CC2	> 46
Cc1ncc(CSSCc2cnc(C)c(O)c2CO)c(CO)c1O.Cl.Cl	> 46
O=C1O[C@H]([C@@H](O)CO)C(O)=C1O	> 46
CN(C)CC/C=C1C(C=CC=C3)=C3C=CC2=C\1C=CC=C2.Cl	> 46
CN1CCC[C@@H]1c1cccnc1	> 46
c1ccc2sc(SNC3CCCCC3)nc2c1	> 46
Cc1ncc([N+](=O)[O-])n1CC(C)O (configuration not stated)	> 46
Cl.NCCO/C=C/[C@H](N)C(=O)O	> 46
c1csc(C2(N3CCCCC3)CCCCC2)c1	> 46
Nc1ccc(C=Cc2ccc(N)cc2S(=O)(=O)O)c(S(=O)(=O)O)c1	> 46
Oc1ccc2c3c1O[C@H]1[C@@H](O)CC[C@@]4(O)[C@@H](C2)N(CC2CCC2)CC[C@]314	> 46
Cl.NCC(O)c1cccc(O)c1 (configuration not stated)	> 46
FC(F)(F)COCC(F)(F)F	> 46
O=C(O)c1cc(O)c(O)c(O)c1	> 46
OC(=O)[C@@H](N)C\C2=C\Nc1ccc(O)cc12	> 46
C[C@]12CC[C@@H]3c4ccc(O)cc4C[C@@H](CCCCCCCCCS(=O)CCCC(F)(F)C(F)(F)F)[C@H]3[C@@H]1CC[C@@H]2O (some centres not stated)	> 46
CCCCCCCCCCCCCCCC(=O)O	> 46
O=C(O)Cn1c(C(=O)Nc2nc(-c3ccccc3Cl)cs2)cc2ccccc21	> 46
CNCCCC1c2ccccc2C=Cc2ccccc21.Cl	> 46
C=CCCCCCCCCC(=O)OC	> 46

SMILES	IC50 [µM]
Cc1cn[nH]c1	> 46
COc1ccc(CC2c3cc(OC)c(OC)cc3CC[N+]2(C)CCC(=O)OCCCCCOC(=O)CC[N+]2(C)CCc3cc(OC)c(OC)cc3C2Cc2ccc(OC)c(OC)c2)cc1OC.O=S(=O)([O-])c1ccccc1.O=S(=O)([O-])c1ccccc1 (configuration not stated)	> 46
N[C@@H](C\C1=C\N=C/N1)C(O)=O.Cl	> 46
COc1cc2c(cc1OC)C1CC(=O)C(CC(C)C)CN1CC2 (configuration not stated)	> 46
CC1CCCCN1CCCOC(=O)c1ccccc1.Cl (configuration not stated)	> 46
CN(C)CCCOc1nn(Cc2ccccc2)c2ccccc12.Cl	> 46
NS(=O)(=O)c1cc(C(=O)O)c(NCc2ccco2)cc1Cl	> 46
CN(C)CCOC(c1ccc(Cl)cc1)c1ccccn1.O=C(O)/C=C\C(=O)O (configuration not stated)	> 46
CCOc1cc(-c2nccc3cc(OC)c(OC)cc23)cc(OCC)c1OCC	> 46
O=c1[nH]c(=O)c2ccccc2o1	> 46
CCc1c(C)[nH]c2c1C(=O)C(CN1CCOCC1)CC2 (configuration not stated)	> 46
CC(=O)Nc1ccc(OCCOCCOc2ccc(NC(C)=O)cc2)cc1	> 46
O=C(OCCOCCO)c1ccccc1Nc1cccc(C(F)(F)F)c1	> 46
Oc1ccc(OCc2ccccc2)cc1	> 46
CCOC(=O)OC(C)OC(=O)[C@@H]1N2C(=O)[C@@H](NC(=O)[C@H](N)c3ccccc3)[C@H]2SC1(C)C.Cl (some centres not stated)	> 46
C[C@H](O)CN(C)C	> 46
CC(=O)Nc1c(I)cc(I)c(C(=O)O)c1I	> 46
CCOC(=O)C1=C(COCCN)NC(C)=C(C(=O)OC)C1c1ccccc1Cl.O=S(=O)(O)c1ccccc1 (configuration not stated)	> 46
CCCc1cc(C(N)=S)ccn1	> 46
O=C([O-])[C@H](O)[C@@H](O)[C@H](O)[C@H](O)CO.O=C([O-])[C@H](O)[C@@H](O)[C@H](O)[C@H](O)CO.[Ba+2]	> 46
CC(C)NC(C)Cc1ccc(I)cc1.Cl (configuration not stated)	> 46

SMILES	IC50 [µM]
OC(O)C(Cl)(Cl)Cl	> 46
O=C(O)CCCCC(=O)O	> 46
O=C(O)CNC(=O)c1ccccc1I	> 46
O[C@H]1[C@@H]([C@]2=CC(O)=C(O)C=C2)OC3=C(C(O)=CC(O)=C3)C1	> 46
COc1cc(C(=O)N2CCOCC2)cc(OC)c1OC	> 46
N\1(C(NC(/C(=C/1)C)=O)=O)[C@@H]2O[C@H](CO)[C@H](C2)O	> 46
CCNC1(c2cccs2)CCCCC1=O.Cl (configuration not stated)	> 46
Cc1cc2c(s1)Nc1ccccc1N=C2N1CCN(C)CC1	> 46
O=P1(NCCCl)OCCCN1CCCl (configuration not stated)	> 46
CC(C)Cn1cnc2c(N)nc3ccccc3c21	> 46
CN1C(C(=O)Nc2ccccn2)=C(O)c2ccccc2S1(=O)=O	> 46
C=CCNC(N)=S	> 46
NCCCC(=O)O	> 46
O=C([C@H](C)CS)N(CCC1)[C@@H]1[C@@](O)=O	> 46
[O-][N+](=Nc1ccccc1)c1ccccc1	> 46
CCCc1ccc(C(=O)O)cc1	> 46
Cc1scc2c1N(C(=O)CN1CCN(C)CC1)c1ccccc1NC2=O	> 46
CC1=C(/C=C/C(C)=C/C=C/C(C)=C/C(=O)Oc2c(C)c(C)c3c(c2C)CC[C@@](C)(CCC[C@H](C)CCC[C@H](C)CCCC(C)C)O3)C(C)(C)CCC1	> 46
CN(C)C(=N)NC(=N)N.Cl	> 46
CCCC(=O)O[C@]1(C(=O)CO)CC[C@H]2[C@@H]3CCC4=CC(=O)CC[C@]4(C)[C@H]3[C@@H](O)C[C@@]21C	> 46
S=C(S)N1CCNCC1	> 46

SMILES	IC50 [µM]
C[C@@H](Cc1ccccc1)NCCC(c1ccccc1)c1ccccc1.C[C@H](O)C(=O)O	> 46
CCCCCCCCCCCCCCCC[N+](C)(C)CCN(Cc1ccc(OC)cc1)c1ncccn1.[Br-]	> 46
Cc1nc[nH]c1CN1CCc2c(c3ccccc3n2C)C1=O.Cl	> 46
Cc1ncc(CO)c(C=O)c1O	> 46
NC(=O)c1ccccc1O	> 46
CCOc1ccc(/N=C(\C)Nc2ccc(OCC)cc2)cc1	> 46
C=C[C@@]1(C)CC(=O)[C@]2(O)[C@@]3(C)[C@@H](O)CCC(C)(C)[C@@H]3[C@H](O)[C@H](OC(C)=O)[C@@]2(C)O1	> 46
Nc1nc(=O)[nH]cc1F	> 46
CC(O)Cn1cnc2c1c(=O)n(C)c(=O)n2C (configuration not stated)	> 46
CS(=O)(=O)c1ccc(C2=C(c3ccccc3)C(=O)OC2)cc1	> 46
Oc1cccc(O)c1O	> 46
[O]=[Bi][O]C(=O)[O][Bi]=[O]	> 46
O=[C@]([C@@H]3N([C@@H]2SC(C)3C)C([C@H]2NC([C@@H](C1=CC=C(C=C1)O)N)=O)=O)O	> 46
Cc1ncc(COP(=O)(O)O)c(C=O)c1O.O	> 46
Cc1cc(O)cc2c1O[C@](C)(CCC[C@H](C)CCC[C@H](C)CCCC(C)C)CC2	> 46
CC[C@H]1OC(=O)[C@H](C)[C@@H](O[C@H]2C[C@@](C)(OC)[C@@H](O)[C@H](C)O2)[C@H](C)[C@@H](O[C@@H]2O[C@H](C)C[C@H](N(C)C)[C@H]2O)[C@](C)(O)C[C@@H](C)C(=NOCOCCOC)[C@H](C)[C@@H](O)[C@]1(C)O	> 46
Cc1ccc(O)c(-n2nc3ccccc3n2)c1	> 46
Cl.Cl.OCCN1CCN(CC/C=C2\c3ccccc3Sc3ccc(Cl)cc32)CC1	> 46
OCc1ccccn1	> 46
